Assay [1] deals with TRPV6. Briefly: TRPV6 gene activation assay (TRPV6 mRNA, QuantiGene 2.0) in differentiated C2BBe1 cells. The assay is classed as cell-based, human. As to the method:
C2BBe1 (a clone of CaCO2) cells (CRL-2101, American Type Culture Collection, Manassas, VA) were maintained in DMEM (ATCC 30-2002) supplemented with 10% FBS and insulin-transferrin-selenium-G supplement (Invitrogen, Carlsbad, CA). For TRPV6 expression analysis, cells were plated in 96-well tissue culture treated plates (40,000 per well) in differentiation medium (DMEM containing 5% charcoal-stripped FBS and insulin-transferrin-sodium selenite supplement (ITS)). Cells were allowed to differentiate for 6 days with medium replacement every other day before compound treatment. The medium was removed, and serial dilutions of 1,25D3 or VDRMs in concentrations ranging from 10 μM to 2 nM in differentiation medium were added. After 24 h, the medium was removed, and cell plates were sealed and frozen at −80 °C until assayed. QuantiGene 2.0 Assay Kit (Affymetrix QS0009) was used to quantitate TRPV6 and housekeeping gene GUSB mRNA levels. Following the kit instructions, lysis buffer was added to the frozen cells and incubated briefly at 55 °C […]. Following an overnight incubation the capture plates were washed and the probes amplified following kit instructions. The resulting luminescence signal was detected on an Envision plate reader (Perkin Elmer). TRPV6 signal was normalized using the GUSB signal and the resulting data was fit to a 4-parameter logistic to determine EC50 values.

Assay [2] relates to BGLAP. As to the kind of experiment: BGLAP gene activation assay (BGLAP mRNA, QuantiGene 2.0) in MG-63 cells. Type of assay: cell-based, human. As to the method: Human osteosarcoma cells MG-63, (CRL-1427, American Type Culture Collection (ATCC), Manassas, VA), were maintained in EMEM (ATCC 30–2003) + 10% FBS in 5% CO2. For bone gamma-carboxyglutamate protein (BGLAP) expression analysis MG-63 cells, suspended in EMEM (ATCC 30–2003) + 5% charcoal dextran treated FBS, were seeded onto 96-well tissue culture treated plates at 25,000 cells per well. After an overnight incubation the medium was removed and serial dilutions of VDRMs in concentrations ranging from 10 μM to 2 nM in EMEM (ATCC 30–2003) + 5% charcoal dextran treated FBS were added. Following a 24 h incubation the medium was removed and the plates were sealed and stored at −80 °C for later processing. QuantiGene 2.0 Assay Kit (Affymetrix QS0009) was used to quantitate BGLAP and the Housekeeping gene […] mRNA levels. Following the kit instructions, lysis buffer was added to the frozen cells and incubated briefly at 55 °C. A volume of 20 μl of BGLAP probeset (Affymetrix SA-10875-01) or 18 S (Affymetrix SA-10026) in blocking buffer was added to the provided capture plates before adding 80 μl of the cell lysate. The plates were sealed and incubated at 55 °C overnight. Following an overnight incubation the capture plates were washed and the probes amplified following kit instructions. The resulting luminescence signal was detected on an Envision (Perkin Elmer). BGLAP signal was normalized using the 18S signal and the resulting data was fit to a 4-parameter logistics to determine EC50.

Assay [3] deals with T1, WT Flag-h RXRα (human, UniProt P19793 1-462).
T1 construct: human retinoid X receptor alpha (RXRα), full length; also called retinoid X receptor α; source: baculovirus system, purified (Flag, SEC)
T1 sequence (looked up): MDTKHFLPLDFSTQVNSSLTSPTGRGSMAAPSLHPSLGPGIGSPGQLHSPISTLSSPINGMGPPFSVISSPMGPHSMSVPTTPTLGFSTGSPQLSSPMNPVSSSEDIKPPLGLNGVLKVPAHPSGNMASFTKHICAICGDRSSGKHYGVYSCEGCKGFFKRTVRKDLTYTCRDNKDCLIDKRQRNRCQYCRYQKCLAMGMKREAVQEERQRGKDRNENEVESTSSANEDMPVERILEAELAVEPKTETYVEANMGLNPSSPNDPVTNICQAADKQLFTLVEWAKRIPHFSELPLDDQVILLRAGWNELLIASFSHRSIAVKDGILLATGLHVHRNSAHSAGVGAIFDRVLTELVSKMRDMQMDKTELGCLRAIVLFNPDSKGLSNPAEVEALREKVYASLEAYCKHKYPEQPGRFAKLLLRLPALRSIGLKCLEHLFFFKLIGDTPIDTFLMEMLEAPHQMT
Briefly: native gel or EMSA; VDR and RXRα mixed at 1:1 molar ratio (about 10 μM); 6% DNA Retardation gel, 0.5X TBE, 150 V, room temperature; ethidium bromide and coomassie staining. As to conditions: both partners purified. On the technique in general: A gel shift assay detects complexes by their altered migration in electrophoresis.

Two molecules from PMC5640644, “HDX reveals the conformational dynamics of DNA sequence specific VDR co-activator interactions” (Nature Communications, 2017) can be followed below.

The term EC50 denotes the concentration at which the effect is half-maximal. In the case of `C=C1/C(=C\C=C2/CCC[C@]3(C)[C@@H]([C@H](C)CCCC(C)(C)O)CC[C@@H]23)C[C@@H](O)C[C@@H]1O` [1,25D3, 1α,25-dihydroxyvitamin D3, reference compound], the “Max. Stim., TRPV6 activation” value in assay [1] (C2BBe1 cells, fold change over DMSO normalized to 1,25D3 = 100%) came out at 100%. The EC50 in assay [1] (Homo sapiens, C2BBe1 cells differentiated 6 days, 24 h, average of replicate runs) was 9.81 nM; in assay [2] (Homo sapiens, MG-63, 24 h, read-out: EC50, BGLAP activation), 4.1 nM. Also, the “Max. Stim., BGLAP activation” value in assay [2] (MG-63 cells, fold change over DMSO normalized to 1,25D3 = 100%) worked out at 100%.

B1: Full-length WT His-hVDR (Δ (151–190)) (receptor, human, UniProt P11473 1-427, looked up)
chain: MEAMAASTSLPDPGDFDRNVPRICGVCGDRATGFHFNAMTCEGCKGFFRRSMKRKALFTCPFNGDCRITKDNRRHCQACRLKRCVDIGMMKEFILTDEEVQRKREMILKRKEEEALKDSLRPKLSEEQQRIIAILLDAHHKTYDPTYSDFITSSDMMDSSSFSNLDLSEEDSDDPSVTLELSQLSMLPHLADLVSYSIQKVIGFAKMIPGFRDLTSEDQIVLLKSSAIEVIMLRSNESFTMDDMSWTCGNQDYKYRVSDVTKAGHSLELIEPLIKFQVGLKKLNLHEEEHVLLMAICIVSPDRPGVQDAALIEAIQDRLSNTLQTYIRCRHPPPGSHLLYAKMIQKLADLRSLNEEHSKQYRCLSFQPECSMKLTPLVLEVFGNEIS
notes: human vitamin D receptor (VDR), full length with residues 151-190 deleted; also called vitamin D receptor; source: baculovirus system, purified (Ni-NTA, SEC)
Take B1: the binding result in assay [3] is given as “binds”.
